From US5906922A, “Delivery of nucleic acids” (Commonwealth Scientific and Industrial Research Organisation, priority 1994, dated 1999)
Where a SMILES comes first, the peptide text is derived from it. The star is where a group is joined. NHC(CH2OLauroyl)3 = CCCCCCCCCCCC(=O)OCC(COC(=O)CCCCCCCCCCC)(COC(=O)CCCCCCCCCCC)N*

Key:
Cos 1 cells [1] = assay type: cell-based, African Green Monkey
Description: Relative levels of cytotoxicity caused by the different agents were compared during the experiment using the dye "Alamar Blue" (Alamar, Sacramento Calif.).
(§1) For experiment "c", a plasmid pPGKlaczNLS encoding β-galactosidase under the control of the mouse PGK promoter (kind gift from G.Hannan) or pSVGAL which utilises the SV40 early promoter (Sleigh, M. J. and Lockett, T. J. (1985). EMBO J. 4:3831-3837),was transfected. This experiment and assay were modified from Feigner et al J. Biol Chem. 269(4) 2550-2561 1994. This protocol allows the simultaneous assessment of 72 different combinations and concentrations of DNA and test agent in a microtitre tray. […] Cytotoxicity was assessed using alamar blue, and a sample graph is shown for experiment a.
(§2) The ratio of [lipid]/[DNA] at which that maximum was achieved is shown. Experiments shown were carried out in Cos 1 cells, as described above. MTS OD is a measure of relative viabilility of the cells exposed to the different agents, a higher value indicates greater cell viability. * These points were taken from a separate experiment and some slight variation between absolute numbers should be expected between experiments.
(§3) The ratio of [lipid]/[DNA] at which that maximum was achieved is shown in brackets for the two different cell types in the following order; (Cos 1) (CHO). Experiments shown were carried out in Cos 1 cells, as described above. Viability was measured with the dye alamar blue . # Denotes compounds tested in a separate experiment. * Viability in this experiment was determined with MTS. OD is a measure of relative viability of the cells exposed to the different agents, and as with alamar blue, a higher value indicates greater cell viability.

Cos 1 cells [2] = test: Transfection of pSVLCAT, CAT assay, Cos 1; assay type: cell-based, African Green Monkey
Protocol: To test the transfection properties of the lead compound K3ATP3 (VerafectinA3), whole uncut plasmid carrying the gene encoding CAT (chloramphenicol acetyl transferase) under the control of the SV40 late promoter, pSVLCAT (Cameron, F. H. and Jennings, P. A. (1989) PNAS 86, 9139-9143) was mixed with the test agent and put on Cos 1 cells under various conditions. After 48 hours of culture the level of secreted CAT was assayed from the culture medium.
Solution I: 1 μg Plasmid DNA in 500 μl Dulbeccos Modified Eagles Medium (DME)
Solution II: 0-20 μl VerafectinA3 (2.5 mg/ml 25% DMSO) in 500 μl DME, Vortex
Combine solution I and II, vortex briefly and incubate at room temperature for 10 min.
Add mix to washed cells in 60 mm tissue culture dishes (seeded 0.5×10^6 /dish previous day) for 6 hrs at 37° C., 5% C02. Add 2 ml DME+10% FCS for remainder of 48 hrs. Assay CAT levels in tissue culture medium (Sleigh, M. J. (1986) Anal. Biochem. 156.251-256).
a--Compare VerafectinA3 dissolved in DMSO or ethanol.
b--Compare VerafectinA3 on cells 6 hrs to overnight. VerafectinA3 at 10 mg/ml in 100% solvent was diluted to 2.5 mg/ml with water.
Transfection was carried out as for experiment 1. VerafectinA3 was left in contact with the cells for varying times.
Protocol was the same for the Verafectins as described above. Lipofectamine protocol was according to manufacturers instructions. Cos 1 cells were seeded at 5×10^5 /60 mm dish and adhered overnight in DME with 10% FCS.
Solution A: 0.5 μg pSVLCAT/60 mm dish.
Solution B: Lipofectamine 10 and 15 μl 2 mg/ml (mixed formulation 3:1 with DOPE).
OR; VerafectinA3 and VerafectinG2 20 μl 2 mM (2.8 and 2.3 mg/ml respectively) stock.
OR; VerafectinG2 was also tested with an equimolar amount of DOPE. VerafectinG2 and DOPE were mixed in DDME and vortexed for 30 seconds before use. Solutions A and B were combined before overlaying on washed cells.
The serum free incubation period in the presence of test agents and DNA was 6 hrs, then 1 ml DME+10% FCS was added. At 24 hours medium was changed to 2 ml fresh DME+10% FCS until harvest at 48 hrs.
Cell lines Cos 1 or CHO were transfected with 0.5 μg of pSVLCAT or 2 μg of pPGKlacZ plasmid using a range of concentrations of each transfection compound. The optimal concentration of compound, that is the concentration giving the highest level of CAT at 48 hours or the greatest percentage of lac z (β-galactosidase) staining cells at 24 hours was used to collate data for Table 1. As all compounds were not tested in a single experiment, absolute figures indicating transfection were not used. Rather, symbols are used to indicate the transfection efficiency relative to Lipofectamine (BRL), which was included as a control in all experiments. Table 1 thus indicates the relative efficiencies of a number of compounds in mediating the transfection of at least one cell type.
All test lipopeptide reagents were originally dissolved at 10 mM in 75% DMSO, and subsequently diluted with water to make a 2 mM stock stored at 4° C. Volumes of 2 mM stock lipopeptide ranging from 2 μl to 15 μl were diluted in 500 μl of DDME. 1 μg of plasmid pSVLCAT was separately diluted in 500 μl of DDME. Solutions were combined for 10-20 min at room temperature before adding to 500 μl of DDME in 60 mm dishes of subconfluent CHO cells (2×10^5 day-1) or Cos 1 cells (5×10^5 day-1); washed free of serum with DDME.
Cells were incubated for 6 hrs under standard conditions of 37° C. and 5% CO2 for 6 hours. 1.5 ml of DME/Hams+10% FCS (CHO) or DME+10% FCS (Cos 1) was added to the cells for overnight incubation. Fresh DME/Hams+10% FCS or DME+10% FCS was used to replace the medium for a further 24 hours prior to harvest. Cell lysates were prepared and assayed for CAT activity as described above. For Cos 1 cells, culture supernatants were assayed for CAT activity.
For transfection of pSVLCAT and subsequent assay of CAT enzyme, experiments "a" and "b" were carried out as described above.

Cos 1 cells [3] = test: β-gal microtitre plate transfection assay, Cos 1; assay type: cell-based, African Green Monkey; conditions: for units β-gal: Table 2, Cos 1, highest reading of 72 conditions; for relative transfection level (A linker compound as reference): "y" linker experiment c, Cos 1, trilysine trilaurate
Description: as §1
Compounds were tested for their ability to transfect either the CAT or β-gal gene carried on plasmids, and assayed as described above.
as §2
Each of these compounds was tested for transfection ability and cytotoxicity on standard cell lines using standard conditions as described above.
as §3

Cos 1 cells [4] = assay type: cell-based, African Green Monkey; remark: listed apart in the source
Protocol: Relative levels of cytotoxicity were also assayed in subsequent experiments using the dye MTS, marketed as Cell titre 96 Aqueous (Promega).
as §2, §3

cells = test: β-gal reporter transfection, "y" linker non-standard amino acids; assay type: cell-based; conditions: K3 "y" TL3 compounds
Protocol: Peptide/fatty acyl conjugates were synthesized using the non-standard amino acids amino butyric (C3), amino caproic (C5) and amino caprylic (C7) acids as the linker groups, a tri-lysine nucleic acid binding domain and laurate for the three fatty acyl groups. In these new conjugates the DNA binding and tris/fatty acyl moieties were separated by an extra 3, 5 and 7 carbon bond lengths respectively when compared with the prototype molecule. These compounds were then tested in the standard manner described above to determine their relative capacity to transfect cells.
K3 "y" TL3 compounds, where y=C3, C5, C7, A, L, G were compared for transfection efficiency to each other and the commercial agent Lipofectamine using the standard β-gal reporter gene system described above.

Cos 1 cells [5] = test: Cellular uptake and distribution of fluorescein conjugates (confocal microscopy); assay type: cell-based, African Green Monkey; conditions: for cell staining after treatment: cells fixed fifteen minutes after treatment; for persistence of staining: conjugate washed off after 2 hours, cells grown 24 hours; for distribution in live, unfixed cells: 40× objective
Protocol: In order to assess the ability to deliver compounds into cells, preliminary experiments were conducted with fluorescein alanine ethanolamine palmitate (FLAEP) and fluorescein alanine tris tripalmitate (FLATP3).
After the incubation period as specified in the experiment, up to 24 hours exposure, the cells were washed and fixed in formaldehyde for 20 minutes. Cells were then observed under laser excitation in a Bio Rad MRC 500 confocal microscope.

CCCCCCCCCCCCCCCC(=O)OCC(CO)(COC(=O)CCCCCCCCCCCCCCC)NC(=O)[C@H](Cc1ccccc1)NC(=O)[C@H](CCCCN)NC(=O)[C@@H](N)CCCCN [K2FTP2]
toxicity, linkers K, F and L compared (Cos 1 cells [1]): somewhat higher than for the K compound

CCCCCCCCCCCCCCCC(=O)OCC(COC(=O)CCCCCCCCCCCCCCC)(COC(=O)CCCCCCCCCCCCCCC)NC(=O)[C@H](CCCCN)NC(=O)[C@H](CCCCN)NC(=O)[C@@H](N)CCCCN [K2KTP3]
cytotoxicity, dipalmitate versus tripalmitate (Cos 1 cells [1]): increase in cytotoxicity

CCCCCCCCCCCCCCCC(=O)OCC(CO)(COC(=O)CCCCCCCCCCCCCCC)NC(=O)[C@H](CC(C)C)NC(=O)[C@H](CCCCN)NC(=O)[C@@H](N)CCCCN [K2LTP2]
toxicity, linkers K, F and L compared (Cos 1 cells [1]): somewhat higher than for the K compound | transfection, linkers K, F and L compared (Cos 1 cells [2]; "y" linker experiment a, Cos 1, dilysine dipalmitate): marginally superior results to F, but was substantially more effective than the K compound | transfection, linkers A and L compared (Cos 1 cells [2]; "y" linker experiment b, Cos 1): very similar activities

CCCCCCCCCCCCCC(=O)OCC(CO)(COC(=O)CCCCCCCCCCCCC)NC(=O)[C@H](C)NC(=O)[C@H](CCCCN)NC(=O)[C@H](CCCCN)NC(=O)[C@@H](N)CCCCN [K3ATM2]
ratio [lipid]/[DNA] at which maximum was achieved (Cos 1 cells [3]; Table 2, Cos 1): 0.35 | units β-gal (Cos 1 cells [3]): 3.46 × 10^-5 units | ratio [lipid]/[DNA] at which maximum was achieved (Cos 1 cells [3]; Table 3, Cos 1): .35 | β-gal (Cos 1) (Cos 1 cells [3]; Table 3, Cos 1, highest reading of 72 conditions): 3.46 × 10^-5 | MTS OD490-655 (Cos 1 cells [4]): 1.56 | Viability (Cos 1) (Cos 1 cells [4]): 1.56

CCCCCCCCCCCCCC(=O)OCC(COC(=O)CCCCCCCCCCCCC)(COC(=O)CCCCCCCCCCCCC)NC(=O)[C@H](C)NC(=O)[C@H](CCCCN)NC(=O)[C@H](CCCCN)NC(=O)[C@@H](N)CCCCN [K3ATM3]
ratio [lipid]/[DNA] at which maximum was achieved (Cos 1 cells [3]; Table 2, Cos 1): 1.39 | units β-gal (Cos 1 cells [3]): 2.86 × 10^-4 units | ratio [lipid]/[DNA] at which maximum was achieved (Cos 1 cells [3]; Table 3, Cos 1): 1.39 | β-gal (Cos 1) (Cos 1 cells [3]; Table 3, Cos 1, # tested in a separate experiment): 2.86 × 10^-4 | MTS OD490-655 (Cos 1 cells [4]): 1.22 | Viability (Cos 1) (Cos 1 cells [4]): 1.22

CCCCCCCCCCCC(=O)OCC(COC(=O)CCCCCCCCCCC)(COC(=O)CCCCCCCCCCC)NC(=O)CCCNC(=O)[C@H](CCCCN)NC(=O)[C@H](CCCCN)NC(=O)[C@@H](N)CCCCN [K3C3TL3]
transfection efficiency compared to Lipofectamine (cells): more efficient at transfection than Lipofectamine | transfection efficiency compared to standard single amino acid linker (cells): dramatically more efficient than compounds using the standard single amino acid linker

CCCCCCCCCCCC(=O)OCC(COC(=O)CCCCCCCCCCC)(COC(=O)CCCCCCCCCCC)NC(=O)CCCCCNC(=O)[C@H](CCCCN)NC(=O)[C@H](CCCCN)NC(=O)[C@@H](N)CCCCN [K3C5TL3]
transfection efficiency compared to Lipofectamine (cells): more efficient at transfection than Lipofectamine | transfection efficiency compared to standard single amino acid linker (cells): dramatically more efficient than compounds using the standard single amino acid linker

CCCCCCCCCCCC(=O)OCC(COC(=O)CCCCCCCCCCC)(COC(=O)CCCCCCCCCCC)NC(=O)CNC(=O)[C@H](CCCCN)NC(=O)[C@H](CCCCN)NC(=O)[C@@H](N)CCCCN [K3GTL3] (H-KKKG-{NHC(CH2OLauroyl)3})
relative transfection level (A linker compound as reference) (Cos 1 cells [3]): 12% | transfection efficiency compared to Lipofectamine (cells): All of the compounds except K3GTL3 were found to be more efficient at transfection than Lipofectamine

CCCCCCCCCCCC(=O)OCC(COC(=O)CCCCCCCCCCC)(COC(=O)CCCCCCCCCCC)NC(=O)[C@H](CC(C)C)NC(=O)[C@H](CCCCN)NC(=O)[C@H](CCCCN)NC(=O)[C@@H](N)CCCCN [K3LTL3] (H-KKKL-{NHC(CH2OLauroyl)3})
relative transfection level (A linker compound as reference) (Cos 1 cells [3]): 57% | transfection efficiency compared to Lipofectamine (cells): more efficient at transfection than Lipofectamine

O=C1OC2(c3ccc(O)cc3Oc3cc(O)ccc32)c2ccccc21 [fluorescein, reference compound]
cell staining after treatment (Cos 1 cells [5]; 10 μM): only a very weak generalised fluorescence over the whole cell

fluorescein alanine Tris tripalmitate [FLATP3]
cell staining after treatment (Cos 1 cells [5]; 10 μM): intense cytoplasmic staining | localisation of conjugate (Cos 1 cells [5]; 10 μM, fixed cells): appeared to associate preferentially with the cellular and nuclear membranes | persistence of staining (Cos 1 cells [5]): a pattern that persisted in cells allowed to grow for 24 hours | distribution in live, unfixed cells (Cos 1 cells [5]): exhibited a similar pattern whether the cells were live or fixed

fluorescein alanine ethanolamine palmitate [FLAEP]
cell staining after treatment (Cos 1 cells [5]; 10 μM): intense cytoplasmic staining | persistence of staining (Cos 1 cells [5]): This same persistence of staining was not observed | distribution in live, unfixed cells (Cos 1 cells [5]): appeared to enter the cell readily, but was concentrated particularly in the nucleus
